What all share (type): in vivo
Experiment [1] concerns crabgrass (Digitaria spp.). The experiment can be described thus: Test A postemergence, sprayed to runoff. The conditions noted are these: approx. eleven days. As for the experimental part: (§1) Seeds of barnyardgrass (Echinochloa crus-galli), crabgrass (Digitaria spp.), giant foxtail (Setaria viridis), morning glory (Ipomoea spp.), redroot pigweed (Amaranthus retroflexus) and velvetleaf (Abutilon theophrasti) were planted into a sandy loam soil and treated preemergence by soil drench with test chemicals formulated in a non-phytotoxic solvent mixture which included a surfactant. At the same time, these crop and weed species were also treated postemergence sprayed to runoff with test chemicals formulated in the same manner. Plants ranged in height from two to eighteen cm and were in the one- to two-leaf stage for the postemergence treatment. Treated plants and untreated controls were maintained in a greenhouse for approximately eleven days, after which time all treated plants were compared to untreated controls and visually evaluated for injury. Plant response ratings, summarized in Table A, are based on a 0 to 10 scale where 0 is no effect and 10 is complete control. A dash (-) response means no test results.

The subject of experiment [2] is redroot pigweed (Amaranthus retroflexus). Put plainly: Test A postemergence, sprayed to runoff. The conditions noted are these: approx. eleven days. As for the experimental part:
as §1

Experiment [3] has as its system barnyardgrass (Echinochloa crus-galli). Put plainly: Test A postemergence, sprayed to runoff. The conditions noted are these: approx. eleven days. The procedure:
as §1

Experiment [4] concerns giant foxtail (Setaria viridis). Put plainly: Test A postemergence, sprayed to runoff. To be noted: approx. eleven days. As for the experimental part: as §1
For experiment [5], the system named is crabgrass (Digitaria spp.). The experiment can be described thus: Test A preemergence, soil drench. The conditions noted are these: approx. eleven days. As for the experimental part:
as §1

The subject of experiment [6] is redroot pigweed (Amaranthus retroflexus). The experiment can be described thus: Test A preemergence, soil drench. To be noted: approx. eleven days. As for the experimental part: as §1
Experiment [7] relates to morning glory (Ipomoea spp.). The experiment can be described thus: Test A preemergence, soil drench. The conditions noted are these: Morningglory, approx. eleven days. As for the experimental part: as §1
Experiment [8] has as its system barnyardgrass (Echinochloa crus-galli). Put plainly: Test A preemergence, soil drench. To be noted: approx. eleven days. The procedure: as §1
Experiment [9] concerns giant foxtail (Setaria viridis). The experiment can be described thus: Test A preemergence, soil drench. To be noted: approx. eleven days. As for the experimental part:
as §1

The subject of experiment [10] is velvetleaf (Abutilon theophrasti). The experiment can be described thus: Test A preemergence, soil drench. To be noted: approx. eleven days. The procedure:
as §1

For experiment [11], the system named is morning glory (Ipomoea spp.). The experiment can be described thus: Test A postemergence, sprayed to runoff. Also on record: scale not given here. To be noted: Morningglory, approx. eleven days. As for the experimental part:
as §1

Experiment [12] concerns velvetleaf (Abutilon theophrasti). The experiment can be described thus: Test A postemergence, sprayed to runoff. Details: scale not given here. The conditions noted are these: approx. eleven days. The procedure:
as §1

For the molecule `O=C1C(n2ccc(C3CC3)n2)SCN1c1cccc(C(F)(F)F)c1` (stereo not drawn) [Compound 26], the “Plant response rating (visual injury vs untreated controls)” value was 30 in [1] (Rate 500 g/ha); 20 in [1] (Rate 2000 g/ha); 40 in experiment [2] (Rate 500 g/ha); 80 in experiment [2] (Rate 2000 g/ha); 90 in experiment [3] (Rate 500 g/ha); 90 in [3] (Rate 2000 g/ha). In addition, the “Plant response rating (visual injury vs untreated controls)” value in experiment [4] (Rate 500 g/ha) is reported as 50; in experiment [4] (Rate 2000 g/ha), 100; in experiment [5] (Rate 500 g/ha), 100; in [5] (Rate 2000 g/ha), 100; in [6] (Rate 500 g/ha), 100; in [6] (Rate 2000 g/ha), 100. Moreover, the “Plant response rating (visual injury vs untreated controls)” value was determined as 0 in experiment [7] (Rate 500 g/ha); 30 in experiment [7] (Rate 2000 g/ha); 100 in [8] (Rate 500 g/ha); 100 in experiment [8] (Rate 2000 g/ha); 100 in experiment [9] (Rate 500 g/ha); 100 in experiment [9] (Rate 2000 g/ha). Moreover, the “Plant response rating (visual injury vs untreated controls)” value in [10] (Rate 500 g/ha) stood at 50; in experiment [10] (Rate 2000 g/ha), 40; in [11] (Rate 500 g/ha) it was 20; in [11] (Rate 2000 g/ha), 50; in experiment [12] (Rate 500 g/ha) it was 10; in experiment [12] (Rate 2000 g/ha) it was 10.
For the molecule `CC(C)c1ccn(C2OCN(c3cccc(C(F)(F)F)c3)C2=O)n1` (stereo not drawn) [Compound 27], the “Plant response rating (visual injury vs untreated controls)” value is on record as 20 in experiment [1] (Rate 500 g/ha); 60 in [1] (Rate 2000 g/ha); 20 in experiment [2] (Rate 500 g/ha); 80 in experiment [2] (Rate 2000 g/ha); 70 in experiment [3] (Rate 500 g/ha); 80 in experiment [3] (Rate 2000 g/ha). Further, the “Plant response rating (visual injury vs untreated controls)” value in experiment [4] (Rate 500 g/ha) is on record as 50; in experiment [4] (Rate 2000 g/ha), 90; in experiment [5] (Rate 500 g/ha) it was 100; in experiment [5] (Rate 2000 g/ha), 90; in experiment [6] (Rate 500 g/ha), 100; in experiment [6] (Rate 2000 g/ha) it was 100. Besides, the “Plant response rating (visual injury vs untreated controls)” value in [7] (Rate 500 g/ha) is listed as 0; in [7] (Rate 2000 g/ha), 20; in [8] (Rate 500 g/ha), 100; in experiment [8] (Rate 2000 g/ha), 100; in [9] (Rate 500 g/ha), 100; in experiment [9] (Rate 2000 g/ha), 100. In addition, the “Plant response rating (visual injury vs untreated controls)” value in experiment [10] (Rate 500 g/ha) is 20; in experiment [10] (Rate 2000 g/ha) it was 10; in experiment [11] (Rate 500 g/ha), 0; in experiment [11] (Rate 2000 g/ha) it was 20; in [12] (Rate 500 g/ha), 0; in experiment [12] (Rate 2000 g/ha) it was 20.
Turning to `O=C1C(n2ccc(C3CC3)n2)OCN1c1cccc(C(F)(F)F)c1` (stereo not drawn) [Compound 28], the “Plant response rating (visual injury vs untreated controls)” value in experiment [1] (Rate 500 g/ha) came to 20; in [1] (Rate 2000 g/ha), 40; in experiment [2] (Rate 500 g/ha) it was 20; in experiment [2] (Rate 2000 g/ha) it was 80; in experiment [3] (Rate 500 g/ha), 60; in experiment [3] (Rate 2000 g/ha), 60. The “Plant response rating (visual injury vs untreated controls)” value amounted to 80 in experiment [4] (Rate 500 g/ha); 90 in experiment [4] (Rate 2000 g/ha); 90 in experiment [5] (Rate 500 g/ha); 100 in experiment [5] (Rate 2000 g/ha); 100 in [6] (Rate 500 g/ha); 100 in experiment [6] (Rate 2000 g/ha). The “Plant response rating (visual injury vs untreated controls)” value stood at 0 in experiment [7] (Rate 500 g/ha); 0 in [7] (Rate 2000 g/ha); 100 in experiment [8] (Rate 500 g/ha); 100 in experiment [8] (Rate 2000 g/ha); 100 in experiment [9] (Rate 500 g/ha); 100 in experiment [9] (Rate 2000 g/ha). The “Plant response rating (visual injury vs untreated controls)” value in experiment [10] (Rate 500 g/ha) amounted to 10; in [10] (Rate 2000 g/ha) it was 10; in experiment [11] (Rate 500 g/ha), 10; in experiment [11] (Rate 2000 g/ha) it was 20; in [12] (Rate 500 g/ha) it was 0; in [12] (Rate 2000 g/ha), 50.
Regarding `CC(C)(C)c1ccn(C2CCN(c3cccc(I)c3)C2=O)n1` (stereo not drawn) [Compound 88], the “Plant response rating (visual injury vs untreated controls)” value in [1] (Rate 500 g/ha) was found to be 20; in experiment [1] (Rate 2000 g/ha), 40; in [2] (Rate 500 g/ha) it was 80; in [2] (Rate 2000 g/ha), 100; in experiment [3] (Rate 500 g/ha), 30; in [3] (Rate 2000 g/ha), 80. In addition, the “Plant response rating (visual injury vs untreated controls)” value came to 40 in [4] (Rate 500 g/ha); 90 in experiment [4] (Rate 2000 g/ha); 80 in experiment [5] (Rate 500 g/ha); 100 in experiment [5] (Rate 2000 g/ha); 100 in [6] (Rate 500 g/ha); 100 in experiment [6] (Rate 2000 g/ha). Also, the “Plant response rating (visual injury vs untreated controls)” value in [7] (Rate 500 g/ha) turned out to be 0; in experiment [7] (Rate 2000 g/ha) it was 30; in experiment [8] (Rate 500 g/ha) it was 40; in experiment [8] (Rate 2000 g/ha), 100; in [9] (Rate 500 g/ha) it was 70; in experiment [9] (Rate 2000 g/ha) it was 100. Besides, the “Plant response rating (visual injury vs untreated controls)” value amounted to 0 in experiment [10] (Rate 500 g/ha); 30 in experiment [10] (Rate 2000 g/ha); 10 in experiment [11] (Rate 500 g/ha); 30 in experiment [11] (Rate 2000 g/ha); 0 in [12] (Rate 500 g/ha); 0 in experiment [12] (Rate 2000 g/ha).

(Values after patent US7138361B2, “Herbicidal heterocycles” (E. I. du Pont de Nemours and Company, priority 2000, dated 2006).)
